# Experimental data taken from US7435540B2 (IDEXX Corporation, priority 2002, dated 2008).
# Assays:
# mouse PrP^Sc = mouse PrP^Sc (Mus musculus, UniProt P04925)
# PrP^Sc [1] = target: PrP^Sc (Mus musculus, UniProt P04925)
# PrP^Sc [2] = tested on: PrP^Sc
# bovine PrP^Sc = bovine PrP^Sc (Bos taurus, UniProt P10279)
# PrP^C = PrP^C (Mesocricetus auratus, UniProt P04273)
# Sequence of PrP^C (P04273 23-231 limits assumed): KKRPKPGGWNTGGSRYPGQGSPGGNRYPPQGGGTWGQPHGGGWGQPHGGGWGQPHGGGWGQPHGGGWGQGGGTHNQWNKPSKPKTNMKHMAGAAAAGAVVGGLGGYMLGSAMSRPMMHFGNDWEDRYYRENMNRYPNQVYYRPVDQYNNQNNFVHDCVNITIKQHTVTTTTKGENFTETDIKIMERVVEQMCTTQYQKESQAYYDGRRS
# Sequence of mouse PrP^Sc (P04925 23-230 limits assumed): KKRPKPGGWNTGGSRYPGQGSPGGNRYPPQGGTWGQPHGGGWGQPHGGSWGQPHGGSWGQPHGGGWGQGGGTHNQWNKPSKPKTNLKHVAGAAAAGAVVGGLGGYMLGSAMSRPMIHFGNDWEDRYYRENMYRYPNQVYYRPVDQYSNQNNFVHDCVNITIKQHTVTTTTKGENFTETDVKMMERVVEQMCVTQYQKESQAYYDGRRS
# Sequence of PrP^Sc (Mus musculus, UniProt P04925) (P04925 23-230 limits assumed): as above
# Sequence of bovine PrP^Sc (P10279 25-241 limits assumed): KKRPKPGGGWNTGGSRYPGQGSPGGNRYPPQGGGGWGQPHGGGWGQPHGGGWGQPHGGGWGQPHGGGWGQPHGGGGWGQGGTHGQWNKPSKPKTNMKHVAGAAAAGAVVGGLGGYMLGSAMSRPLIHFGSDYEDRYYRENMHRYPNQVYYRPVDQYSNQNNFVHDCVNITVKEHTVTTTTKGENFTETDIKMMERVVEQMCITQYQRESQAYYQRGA
Sequence,competition with YYRRYYRYY beads for capture of mouse PrP^Sc (mouse PrP^Sc),precipitation of PrP^Sc from scrapie mouse brain lysate (PrP^Sc [1]),PrP^Sc selective binding / capture (PrP^Sc [2]),other results
YYAAYYAYY,compete,precipitation of PrP^Sc was observed,–,–
YSAASYASY,compete,precipitation of PrP^Sc was observed,–,–
DEAYYKGWFAY,–,–,negative for PrP^Sc selective capture,–
YARRAYRAY,failed to compete,not with YAR or AYR repeats,–,capture of PrP^Sc from BSE-positive bovine brain lysate (bovine PrP^Sc): failed to capture PrP^Sc
YRAARYRAY,–,–,shown to selectively bind PrP^Sc,–
DRYYWYFDV,–,–,negative for PrP^Sc selective capture,–
YARYARYAR,–,–,shown to selectively bind PrP^Sc,–
AYRRYARYA,–,not with YAR or AYR repeats,–,–
NHSTHNTGH,–,–,negative for PrP^Sc selective capture,–
YYRRYYRYY,–,precipitation of PrP^Sc was observed,–,precipitation of normal isoform PrP^C from normal hamster brain lysate (PrP^C): not the normal isoform; capture of PrP^Sc from BSE-positive bovine brain lysate (bovine PrP^Sc): captures PrP^Sc
